{"source": "patent US20260256751A1", "about": "“COMBINATION OF BETA-2-ADRENERGIC RECEPTOR AGONISTS AND GLP-1 RECEPTOR AGONISTS FOR USE IN TREATING HYPERGLYCAEMIA” (ATROGI AB, priority 2023, published 2026)", "key": {"[1]": {"test_system": "differentiated L6-myotubes", "test": "Glucose uptake screen (Biological example 1 of WO 2019/053427)", "format": "cell-based", "details": "compound at 10 μM, activity relative to isoproterenol at 10 μM; for Emax at 10 µM: read-out: Biological example 1 of WO 2019/053427 (GU)", "procedure,_shortened": "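Rat L6 myoblasts were differentiated into myotubes over 7 days in 2% FBS, then serum-starved overnight. Cells were stimulated with 1×10^−5 M compound plus β2 antagonist ICI-118551 for 1 h 40 min and re-dosed for 20 min in glucose-free medium. Uptake of 50 nM ^3H-2-deoxyglucose over 10 min was counted after NaOH lysis.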"}, "[2]": {"test_system": "differentiated L6-myotubes", "test": "cAMP production relative to isoprenaline (Biological example 2 of WO 2019/053427)", "format": "cell-based", "details": "0.25 h, compound at 10 μM, activity relative to isoproterenol at 10 μM", "procedure,_shortened": "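Differentiated L6 myotubes stimulated 15 min with test compound or isoprenaline, each at final 1×10^−5 M, in HBSS with 1% BSA, 5 mM HEPES, 1 mM IBMX, pH 7.4. cAMP production by the compound expressed relative to that induced by the same concentration of isoprenaline.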"}}}
{"smiles": "CCC[C@@H](C)NC[C@H](O)c1cccc(O)c1", "note": "[Compound 28, (R)-2-[(R)-1-methylbutylamino]-1-(m-hydroxyphenyl)-1-ethanol]", "values": [{"measurement": "Emax at 10 µM", "setting": "[1]", "value": "> 75", "unit": "%"}, {"measurement": "Emax at 10 µM", "setting": "[2]", "value": "50 to 75", "unit": "%"}]}
{"smiles": "Oc1ccc(C(O)CNC23CC4CC(CC(C4)C2)C3)cc1", "note": "(stereo not drawn) [Compound 11, p-[2-(1-adamantanylamino)-1-hydroxyethyl]phenol]", "values": [{"measurement": "Emax at 10 µM", "setting": "[1]", "value": "25 to 50", "unit": "%"}, {"measurement": "Emax at 10 µM", "setting": "[2]", "value": "< 25", "unit": "%"}]}
{"smiles": "CC(C)(C[C@H]1CC[C@@H](NS(C)(=O)=O)CC1)NC[C@@H](O)c1cccc(C#N)n1", "note": "[Compound 424, 6-[(R)-2-{1,1-dimethyl-2-[(1s,4S)-4-(mesylamino)cyclohexyl]ethylamino}-1-hydroxyethyl]-2-pyridinecarbonitrile]", "values": [{"measurement": "Emax at 10 µM", "setting": "[1]", "value": "25 to 50", "unit": "%"}, {"measurement": "Emax at 10 µM", "setting": "[2]", "value": "< 25", "unit": "%"}]}
{"smiles": "COc1ccc(CCC23CCC([C@H](O)c4cncc(F)c4)(CC2)N3)cc1", "note": "[Compound 542, (R)-(5-fluoro-3-pyridyl){4-[2-(p-methoxyphenyl)ethyl]-7-azabicyclo[2.2.1]hept-1-yl}methanol]", "values": [{"measurement": "Emax at 10 µM", "setting": "[1]", "value": "50 to 75", "unit": "%"}, {"measurement": "Emax at 10 µM", "setting": "[2]", "value": "25 to 50", "unit": "%"}]}
{"smiles": "CO[C@H]1CC[C@H](C[C@H]2CC[C@H]([C@@H](O)c3ccccc3F)N2)CC1", "note": "[Compound 338, (S)-[(2R,5R)-5-{[(1r,4R)-4-methoxycyclohexyl]methyl}-2-pyrrolidinyl](o-fluorophenyl)methanol]", "values": [{"measurement": "Emax at 10 µM", "setting": "[1]", "value": "50 to 75", "unit": "%"}, {"measurement": "Emax at 10 µM", "setting": "[2]", "value": "< 25", "unit": "%"}]}
{"smiles": "CCC[C@@H]1CCCC[C@H]([C@@H](O)c2cncc(F)c2)N1", "note": "[Compound 218, (S)-[(2R,7R)-7-propyl-2-azepanyl](5-fluoro-3-pyridyl)methanol]", "values": [{"measurement": "Emax at 10 µM", "setting": "[1]", "value": "< 25", "unit": "%"}, {"measurement": "Emax at 10 µM", "setting": "[2]", "value": "< 25", "unit": "%"}]}
{"smiles": "CC(C)(C)NCC(O)c1ccncc1O", "note": "(stereo not drawn) [Compound 134, 4-[2-(tert-butylamino)-1-hydroxyethyl]-3-pyridinol]", "values": [{"measurement": "Emax at 10 µM", "setting": "[1]", "value": "> 75", "unit": "%"}, {"measurement": "Emax at 10 µM", "setting": "[2]", "value": "< 25", "unit": "%"}]}
{"smiles": "Cc1c(F)cccc1[C@@H](O)CNC(C)(C)C", "note": "[Compound 150, (R)-2-(tert-butylamino)-1-(3-fluoro-2-tolyl)-1-ethanol]", "values": [{"measurement": "Emax at 10 µM", "setting": "[1]", "value": "> 75", "unit": "%"}, {"measurement": "Emax at 10 µM", "setting": "[2]", "value": "25 to 50", "unit": "%"}]}
{"smiles": "CC(C)(C[C@H]1CC[C@@H](NC(=O)C2CC2)CC1)NC[C@H](O)c1cccc(F)c1", "note": "[Compound 447, N-[(1S,4s)-4-{2-[(R)-2-(m-fluorophenyl)-2-hydroxyethylamino]-2-methylpropyl}cyclohexyl]cyclopropanecarboxamide]", "values": [{"measurement": "Emax at 10 µM", "setting": "[1]", "value": "> 75", "unit": "%"}, {"measurement": "Emax at 10 µM", "setting": "[2]", "value": "< 25", "unit": "%"}]}
{"smiles": "CC(=O)N[C@H]1CC[C@@H](CC(C)(C)NC[C@H](O)c2cccc(C(F)(F)F)n2)CC1", "note": "[Compound 462, N-[(1R,4s)-4-(2-{(S)-2-hydroxy-2-[6-(trifluoromethyl)-2-pyridyl]ethylamino}-2-methylpropyl)cyclohexyl]acetamide]", "values": [{"measurement": "Emax at 10 µM", "setting": "[1]", "value": "25 to 50", "unit": "%"}, {"measurement": "Emax at 10 µM", "setting": "[2]", "value": "< 25", "unit": "%"}]}
{"smiles": "CC1(C)CC[C@H]([C@@H](O)c2ccccc2Cl)N1", "note": "[Compound 151, (S)-[(R)-5,5-dimethyl-2-pyrrolidinyl](o-chlorophenyl)methanol]", "values": [{"measurement": "Biological example 1 of WO 2019/053427 (GU)", "setting": "[1]", "value": "− (less than 25%)"}, {"measurement": "Emax at 10 µM", "setting": "[2]", "value": "< 25", "unit": "%"}]}
{"smiles": "CCC[C@@H]1CCC[C@H]([C@H](O)c2cccc(F)c2)N1", "note": "[Compound 59, (R)-[(2R,6R)-6-propyl-2-piperidyl](m-fluorophenyl)methanol]", "values": [{"measurement": "Emax at 10 µM", "setting": "[1]", "value": "25 to 50", "unit": "%"}, {"measurement": "Emax at 10 µM", "setting": "[2]", "value": "< 25", "unit": "%"}]}
{"smiles": "CCCC1(CCC)CC[C@H]([C@H](O)c2cccc(F)c2)N1", "note": "[Compound 159, (R)-[(R)-5,5-dipropyl-2-pyrrolidinyl](m-fluorophenyl)methanol]", "values": [{"measurement": "Emax at 10 µM", "setting": "[1]", "value": "50 to 75", "unit": "%"}, {"measurement": "Emax at 10 µM", "setting": "[2]", "value": "< 25", "unit": "%"}]}
{"smiles": "CCCCNC[C@H](O)c1csc(C(F)(F)F)n1", "note": "[Compound 72, (S)-2-(butylamino)-1-[2-(trifluoromethyl)-1,3-thiazol-4-yl]-1-ethanol]", "values": [{"measurement": "Emax at 10 µM", "setting": "[1]", "value": "25 to 50", "unit": "%"}, {"measurement": "Emax at 10 µM", "setting": "[2]", "value": "< 25", "unit": "%"}]}
{"smiles": "CO[C@H]1CC[C@@H](CC(C)(C)NC[C@H](O)c2cncc(F)c2)CC1", "note": "[Compound 248, (R)-2-{1,1-dimethyl-2-[(1s,4S)-4-methoxycyclohexyl]ethyl-amino}-1-(5-fluoro-3-pyridyl)-1-ethanol]", "values": [{"measurement": "Emax at 10 µM", "setting": "[1]", "value": "> 75", "unit": "%"}, {"measurement": "Emax at 10 µM", "setting": "[2]", "value": "< 25", "unit": "%"}]}
{"smiles": "CC(C)(C[C@H]1CC[C@@H](C#N)CC1)NC[C@H](O)c1cccc(F)c1", "note": "[Compound 399, (1S,4s)-4-{2-[(R)-2-(m-fluorophenyl)-2-hydroxyethylamino]-2-methylpropyl)cyclohexanecarbonitrile]", "values": [{"measurement": "Emax at 10 µM", "setting": "[1]", "value": "> 75", "unit": "%"}, {"measurement": "Emax at 10 µM", "setting": "[2]", "value": "25 to 50", "unit": "%"}]}
{"smiles": "CC(C)(C[C@H]1CC[C@H](NS(C)(=O)=O)CC1)NC[C@H](O)c1cccc(C#N)n1", "note": "[Compound 426, 6-[(S)-2-{1,1-dimethyl-2-[(1r,4S)-4-(mesylamino)cyclohexyl]ethylamino}-1-hydroxyethyl]-2-pyridinecarbonitrile]", "values": [{"measurement": "Emax at 10 µM", "setting": "[1]", "value": "> 75", "unit": "%"}, {"measurement": "Emax at 10 µM", "setting": "[2]", "value": "< 25", "unit": "%"}]}
{"smiles": "O[C@@H](c1cccc(F)c1)[C@H]1CCC2(CC2)N1", "note": "[Compound 171, (S)-{(R)-4-aza-5-spiro[2.4]heptyl}(m-fluorophenyl)methanol]", "values": [{"measurement": "Emax at 10 µM", "setting": "[1]", "value": "25 to 50", "unit": "%"}, {"measurement": "Emax at 10 µM", "setting": "[2]", "value": "< 25", "unit": "%"}]}
{"smiles": "CC1(C)CCC[C@H]([C@@H](O)c2cccc(Cl)c2)N1", "note": "[Compound 164, (S)-[(R)-6,6-dimethyl-2-piperidyl](m-chlorophenyl)methanol]", "values": [{"measurement": "Emax at 10 µM", "setting": "[1]", "value": "50 to 75", "unit": "%"}, {"measurement": "Emax at 10 µM", "setting": "[2]", "value": "< 25", "unit": "%"}]}
{"smiles": "CC(=O)N[C@H]1CC[C@@H](CNC[C@H](O)c2cncc(F)c2)CC1", "note": "[Compound 310, N-[(1S,4s)-4-{[(R)-2-(5-fluoro-3-pyridyl)-2-hydroxyethylamino]methyl}cyclohexyl]acetamide]", "values": [{"measurement": "Emax at 10 µM", "setting": "[1]", "value": "25 to 50", "unit": "%"}, {"measurement": "Emax at 10 µM", "setting": "[2]", "value": "< 25", "unit": "%"}]}
{"smiles": "CCCC(C)NCC(O)c1ccc(O)c(Cl)c1", "note": "(stereo not drawn) [Compound 19, 1-(3-chloro-4-hydroxyphenyl)-2-(1-methylbutylamino)-1-ethanol]", "values": [{"measurement": "Emax at 10 µM", "setting": "[1]", "value": "25 to 50", "unit": "%"}, {"measurement": "Emax at 10 µM", "setting": "[2]", "value": "< 25", "unit": "%"}]}
{"smiles": "O[C@H](c1cccc(F)c1)C12CCC(CCc3ccc(Cl)cc3)(CC1)N2", "note": "[Compound 528, (R)-{4-[2-(p-chlorophenyl)ethyl]-7-azabicyclo[2.2.1]hept-1-yl}(m-fluorophenyl)methanol]", "values": [{"measurement": "Emax at 10 µM", "setting": "[1]", "value": "< 25", "unit": "%"}, {"measurement": "Emax at 10 µM", "setting": "[2]", "value": "< 25", "unit": "%"}]}
{"smiles": "CC(C)(C[C@H]1CC[C@@H](NC(=O)C2CCC2)CC1)NC[C@H](O)c1cccc(F)c1", "note": "[Compound 448, N-[(1S,4s)-4-{2-[(R)-2-(m-fluorophenyl)-2-hydroxyethylamino]-2-methylpropyl}cyclohexyl]cyclobutanecarboxamide]", "values": [{"measurement": "Emax at 10 µM", "setting": "[1]", "value": "50 to 75", "unit": "%"}, {"measurement": "Emax at 10 µM", "setting": "[2]", "value": "< 25", "unit": "%"}]}
{"smiles": "CO[C@H]1CC[C@@H](C(C)(C)NC[C@H](O)c2cccc(F)c2)CC1", "note": "[Compound 251, (R)-1-(m-fluroophenyl)-2-{1-methyl-1-[(1s,4S)-4-methoxycyclohexyl]ethyl-amino}-1-ethanol]", "values": [{"measurement": "Emax at 10 µM", "setting": "[1]", "value": "< 25", "unit": "%"}, {"measurement": "Emax at 10 µM", "setting": "[2]", "value": "< 25", "unit": "%"}]}
{"smiles": "CO[C@H]1CC[C@@H](CNC[C@H](O)c2cncc(F)c2)CC1", "note": "[Compound 246, (R)-1-(5-fluoro-3-pyridyl)-2-({[(1s,4S)-4-methoxycyclohexyl]meth-yl}amino)-1-ethanol]", "values": [{"measurement": "Emax at 10 µM", "setting": "[1]", "value": "50 to 75", "unit": "%"}, {"measurement": "Emax at 10 µM", "setting": "[2]", "value": "< 25", "unit": "%"}]}
{"smiles": "COc1ccc(C[C@@]2(C)CC[C@H]([C@H](O)c3cccc(F)c3)N2)cc1", "note": "[Compound 366, (R)-{(2R,5R)-5-[(p-methoxyphenyl)methyl]-5-methyl-2-pyrrolidinyl}(m-fluorophenyl)methanol]", "values": [{"measurement": "Emax at 10 µM", "setting": "[1]", "value": "> 75", "unit": "%"}, {"measurement": "Emax at 10 µM", "setting": "[2]", "value": "25 to 50", "unit": "%"}]}
{"smiles": "COC(=O)[C@H]1CC[C@@H](C(C)(C)NC[C@H](O)c2cncc(F)c2)CC1", "note": "[Compound 321, (1S,4s)-8-[(R)-2-(5-fluoro-3-pyridyl)-2-hydroxyethylamino]-7-methoxy-p-menthan-7-one]", "values": [{"measurement": "Emax at 10 µM", "setting": "[1]", "value": "50 to 75", "unit": "%"}, {"measurement": "Emax at 10 µM", "setting": "[2]", "value": "< 25", "unit": "%"}]}
